Experimental data: patent publication US11608320B2, “Oxazolidinone hydroxamic acid derivatives” (KUWAIT UNIVERSITY, priority 2020, dated 2023)

System: antigen-induced airway hyperresponsiveness to methacholine
Experiment: Allergen-induced airway hyperresponsiveness (AHR) in mouse model of asthma
Type: in vivo
Conditions: 15 or 30 mg/kg s.c., 1 h before and 1 h after each ovalbumin challenge
Description: Inhibition of allergen-induced Airway hyperresponsiveness (AHR) and inflammation in mouse model of asthma; Immunization, challenge and drug treatment: Female mice, as specified above, were immunized intraperitoneally (i.p.) with 10 μg ovalbumin mixed with 0.2 ml of aluminum hydroxide gel (Alu-Gel-S; SERVA Electrophoresis GmbH, Heidelberg, Germany), on day 0 and repeated on day 7. On day 14, after the start of immunization, the animals were challenged intra-nasally, once a day for 4 consecutive days, with 50 μl of 0.06% ovalbumin solution in PBS. Control animals were similarly immunized with PBS and challenged intra-nasally with 50 μl PBS. All intra-nasal administrations were done following light anesthesia with halothane.
The animals were divided into 5 groups A-E (10-14 animals per group). […]
Different treatment groups were used for the AHR and cytology/histology studies. Twenty four hours after the last intra-nasal challenge/drug treatment, lung function was measured in some animals while in others bronchoalveolar lavage (BAL), cytology and histology were performed after they were sacrificed with overdose of halothane.
Measurement of AHR: AHR was measured in individual mice using a Finepoint Series RC site (Buxco Research Systems, Wilmington, N.C., USA), according to the manufacturer's guidelines. […]

CCCCCCCC(=O)N(O)C[C@H]1CN(c2ccc(N3CCOCC3)c(F)c2)C(=O)O1 [PH-251, (R)—N-((3-(3-fluoro-4-morpholinophenyl)-2-oxooxazolidin-5-yl)methyl)-N-hydroxyoctanamide]
Development of antigen-induced AHR to inhaled methacholine (FIGS. 4A-4B): almost completely abolished the development of AHR
